In US9999704B2, “Amphiphilic degradable polymers for immobilization and sustained delivery of biomolecules” (University of Massachusetts, priority 2014, dated 2018) one finds total tube length data, which are given here for one compound.

This test relates to Human umbilical vein endothelial cells (HUVECs). As to the kind of experiment: HUVEC-Matrigel tube formation assay. The following applies: free S1P solution, 17 h. It is filed as cell-based. As to the method: The electrospun meshes were punched into circles of 6.3 mm in diameter, weighed and sterilized with UV irradiation (254 nm, 1 h for each side). Fresh S1P solutions in PBS were carefully loaded onto each mesh (for S1P release study: 5 μL of 0.76-μg/μL solution to achieve 3.8-μg S1P loading per mesh; for tube formation assay: 2 or 10 μL of 0.19-μg/μL solution to achieve 0.38-μg or 1.90-μg S1P loading per mesh). The S1P-loaded meshes were incubated at 37° C. for 1 h and 4° C. for another 4 h before they were air-dried in laminar flow hood overnight.
Human umbilical vein endothelial cells (HUVECs, ATCC, passage 6), were cultured on gelatin-coated plates in M199 medium with 20% fetal bovine serum (FBS), 3 ng/mL bFGF, 5 units/mL heparin and 100 U/100 μg/mL Pen/Strep at 37° C. under 5% CO2. The 96-well culture plate was coated with 50 μL/well growth factor reduced Matrigel and incubated at 37° C. for 0.5 h to allow Matrigel to solidify. Then HUVECs suspended in 100 μL of M199 medium with 0.1% FBS and 100 U/100 μg/mL Pen/Strep were seeded on the Matrigel at 2×10^4 cells/well. After 30 min of cell attachment, PBS solutions of S1P or S1P-loaded meshes were carefully added to each well, followed by continued incubation at 37° C. for 17 h. After removing the meshes and culture media, the HUVECs were fixed with 10% formalin saline solution and imaged with an Axiovert 40 CFL microscope equipped with a QImaging camera at 25× and 100× magnifications. The total tube length in each well (n=3-4) was quantified by ImageJ (NIH).

Turning to `CCCCCCCCCCCCC/C=C/[C@@H](O)[C@@H](N)COP(=O)(O)O` [S1P, Sphingosine-1-phosphate], the total tube length entry is, setting by setting: (1-μM, no polymer carrier) “increased”; (10-μM, no polymer carrier) “proangiogenic effect was compromised”; (50-μM, vs. no-S1P control) “significantly inhibited tube formation”.
